Read-outs that look alike come from different tables or passages of the source.
Biological target: T1, triton-extracted alpha-synuclein from PD Tissue (Homo sapiens, UniProt P37840)
T1 construct: tissue Analytic Biological Services Inc; host or cells: human PD temporal cortex grey matter, Triton X-100 insoluble pellet
Test: Alpha-synuclein tissue homogenate binding assay (Assay 1), displacement of [^3H]-1000
Details: for Ki: read-out: α-synuclein Tissue Ki (Assay 1); for Selectivity ratio (Assay 2/Assay 1): Aβ Tissue Ki / α-synuclein Tissue Ki
Method: Frozen human brain tissues from PD patients were purchased from Analytic Biological Services Inc. The samples were post-mortem tissues from donors with clinical diagnosis of late stage of PD. Alpha-synuclein, tau and amyloid burden was determined through a combination of immunohistochemistry on frozen thin coronal sections, as well as alpha Lisa-based quantification of protein levels in a detergent insoluble protein fraction. A tissue sample of temporal cortex was identified from one donor as having moderate to high alpha-synuclein burden, low amyloid and minimal to no tau pathology. The detergent insoluble fraction of temporal cortex from this patient was used to support homogenate binding studies. Grey matter was dissected out of the temporal cortex tissue with a dissecting blade and minced with fine dissecting scissors. […] Homogenates were centrifuged at 100,000×g for 45 minutes. The pellet was resuspended in TBS-TX buffer, using a Polytron at highest setting for 30 seconds at 4° C. Homogenates were centrifuged at 100,000×g for 45 minutes and the pellet was resuspended in TBS-TX buffer. A BCA protein assay was performed on the final homogenate to determine the protein concentration. […] For displacement a-synuclein binding assay, compounds and control were solvated in dimethyl sulfoxide (DMSO) and transferred using focused acoustic energy by an Echo 655 liquid handling instrument (Beckman Coulter, Indianapolis, IN) into designated wells of uniquely bar coded 96-well v-bottom low binding polypropylene microplates (Thermo Scientific, 249946). Compound dose response curves were prepared in a 10-point, 3-fold fashion within columns 2-11 of the microplate from high to low compound concentrations. […] Liquid-handling steps for dispensing insoluble fractions of PD brain homogenates and radioligand were performed using a Bravo automated liquid handling platform equipped with a 96LT disposable tip head (Agilent Technologies, Santa Clara. CA). […] The incubation was terminated by rapid filtration through UniFilter-96 GF/C microplates (pre-treated for 30 minutes with 0.2% Polyethylenimine at 4° C.) by using a FilterMate Harvester (PerkinElmer). […] The bottom of each UniFilter-96 GF/C microplate was adhesively sealed (PerkinElmer 6005199) prior to the addition of 50 μL MicroScint-20 liquid scintillation cocktail (PerkinElmer 6013621) to each well. A clear adhesive seal (TopSeal-A PLUS, PerkinElmer 6050185) was then applied to the top of each microplate and counted 1 minute/well on MicroBeta^2 system (PerkinElmer.

[1] = insoluble fraction of PD brain homogenate, [^3H]-1000 3.0 nM, Kd 0.90 nM

Compound | Ki [1] [nM] | Selectivity ratio (Assay 2/Assay 1) | Ki [nM]
OC[C@H]1CN(c2ncc(/C=C/c3ccc(-n4ccnc4)nc3)cn2)CCN1c1ncccn1 [Example 1, (R,E)-(4-(5-(2-(6-(1H-imidazol-1-yl)pyridin-3-yl)vinyl)pyrimidin-2-yl)-1-(pyrimidin-2-yl)piperazin-2-yl)methanol] | 1.6 | – | –
FCCOC[C@H]1CN(c2ncc(/C=C/c3ccc(-n4ccnc4)nc3)cn2)CCN1c1ncccn1 [Example 3, (R,E)-5-(2-(6-(1H-imidazol-1-yl)pyridin-3-yl)vinyl)-2-(3-((2-fluoroethoxy)methyl)-4-(pyrimidin-2-yl)piperazin-1-yl)pyrimidine] | 0.5 | 8000 | –
COC[C@H]1CN(c2ncc(C#Cc3ccc(-n4ccnc4)nc3)cn2)CCN1c1cc(F)ncn1 [Example 12, (R)-5-((6-(1H-imidazol-1-yl)pyridin-3-yl)ethynyl)-2-(4-(6-fluoropyrimidin-4-yl)-3-(methoxymethyl)piperazin-1-yl)pyrimidine] | – | 3636 | 1.1
COC[C@H]1CN(c2ncccn2)CCN1c1ncc(/C=C/c2ccc(-n3ccnc3)nc2)cn1 [Example 28, (R,E)-5-(2-(6-(1H-imidazol-1-yl)pyridin-3-yl)vinyl)-2-(2-(methoxymethyl)-4-(pyrimidin-2-yl)piperazin-1-yl)pyrimidine] | 1.3 | 3077 | –
COC[C@H]1CN(c2ncc(/C=C/c3ccc(-n4ccnc4)nc3)cn2)CCN1c1ncc(OCCF)cn1 [Example 35, (R,E)-5-(2-(6-(1H-imidazol-1-yl)pyridin-3-yl)vinyl)-2-(4-(5-(2-fluoroethoxy)pyrimidin-2-yl)-3-(methoxymethyl)piperazin-1-yl)pyrimidine] | 2 | 2000 | –
COC[C@H]1CN(c2ncc(/C=C/c3ccc(-n4ccnc4)nc3)cn2)CCN1c1ncc(OCC(O)CF)cn1 (stereo partly drawn) [Example 39, 1-((2-((R)-4-(5-((E)-2-(6-(1H-imidazol-1-yl)pyridin-3-yl)vinyl)pyrimidin-2-yl)-2-(methoxymethyl)piperazin-1-yl)pyrimidin-5-yl)oxy)-3-fluoropropan-2-ol] | 0.52 | 7692 | –
Cn1cc(-c2ncc(/C=C/c3cnc(N4CCN(c5ncncn5)[C@@H](COCCF)C4)nc3)cn2)cn1 [Example 43, (R,E)-2-(2-((2-fluoroethoxy)methyl)-4-(5-(2-(2-(1-methyl-1H-pyrazol-4-yl)pyrimidin-5-yl)vinyl)pyrimidin-2-yl)piperazin-1-yl)-1,3,5-triazine] | – | – | 1.22
COC[C@H]1CN(c2ncc(C#Cc3ccc(-c4cnn(CCF)c4)nc3)cn2)CCN1c1ncncn1 [Example 47, (R)-2-(4-(5-((6-(1-(2-fluoroethyl)-1H-pyrazol-4-yl)pyridin-3-yl)ethynyl)pyrimidin-2-yl)-2-(methoxymethyl)piperazin-1-yl)-1,3,5-triazine] | 0.694 | – | –
FCCOCCOC[C@H]1CN(c2ncc(C#Cc3ccc(-c4cnco4)nc3)cn2)CCN1c1ncncn1 [Example 48, (R)-5-(5-((2-(3-((2-(2-fluoroethoxy)ethoxy)methyl)-4-(1,3,5-triazin-2-yl)piperazin-1-yl)pyrimidin-5-yl)ethynyl)pyridin-2-yl)oxazole] | 0.897 | – | –
Cn1ccc(-c2ncc(C#Cc3cnc(N4CCN(c5ncncn5)[C@@H](COCCF)C4)nc3)cn2)n1 [Example 49, (R)-2-(2-((2-fluoroethoxy)methyl)-4-(5-((2-(1-methyl-1H-pyrazol-3-yl)pyrimidin-5-yl)ethynyl)pyrimidin-2-yl)piperazin-1-yl)-1,3,5-triazine] | 2.91 | – | –
Cn1cc(-c2ncc(C#Cc3cnc(N4CCN(c5ccncn5)[C@@H](COCCF)C4)nc3)cn2)cn1 [Example 53, (R)-2-(3-((2-fluoroethoxy)methyl)-4-(pyrimidin-4-yl)piperazin-1-yl)-5-((2-(1-methyl-1H-pyrazol-4-yl)pyrimidin-5-yl)ethynyl)pyrimidine] | 0.32 | – | –
COC[C@H]1CN(c2ncc(C#Cc3cnc(-c4cnn(CCF)c4)nc3)cn2)CCN1c1ccncn1 [Example 54, (R)-2-(1-(2-fluoroethyl)-1H-pyrazol-4-yl)-5-((2-(3-(methoxymethyl)-4-(pyrimidin-4-yl)piperazin-1-yl)pyrimidin-5-yl)ethynyl)pyrimidine] | 0.91 | – | –
FCCOC[C@H]1CN(c2ncc(C#Cc3cnc(-c4cnco4)nc3)cn2)CCN1c1ncncn1 [Example 55, (R)-5-(5-((2-(3-((2-fluoroethoxy)methyl)-4-(1,3,5-triazin-2-yl)piperazin-1-yl)pyrimidin-5-yl)ethynyl)pyrimidin-2-yl)oxazole] | 6.67 | – | –
COC[C@H]1CN(c2ncc(C#Cc3cnc(-c4cnn(CF)c4)nc3)cn2)CCN1c1ncncn1 [Example 56, (R)-2-(4-(5-((2-(1-(fluoromethyl)-1H-pyrazol-4-yl)pyrimidin-5-yl)ethynyl)pyrimidin-2-yl)-2-(methoxymethyl)piperazin-1-yl)-1,3,5-triazine] | 0.64 | – | –
COC[C@H]1CN(c2ncc(C#Cc3ccc(-n4cnnc4)nc3)c(F)n2)CCN1c1ccncn1 [Example 58, (R)-5-((6-(4H-1,2,4-triazol-4-yl)pyridin-3-yl)ethynyl)-4-fluoro-2-(3-(methoxymethyl)-4-(pyrimidin-4-yl)piperazin-1-yl)pyrimidine] | 1.67 | – | –
Nc1cnn(-c2ncc(C#Cc3cnc(N4CCN(c5ncncn5)[C@@H](COCCF)C4)nc3)cn2)c1 [Example 73, (R)-1-(5-((2-(3-((2-fluoroethoxy)methyl)-4-(1,3,5-triazin-2-yl)piperazin-1-yl)pyrimidin-5-yl)ethynyl)pyrimidin-2-yl)-1H-pyrazol-4-amine] | 9.16 | – | –
COC[C@H]1CN(c2ncc(C#Cc3ccc(N4CCC(n5nccn5)CC4)nc3)cn2)CCN1c1ncccn1 [Example 76, (R)-5-((6-(4-(2H-1,2,3-triazol-2-yl)piperidin-1-yl)pyridin-3-yl)ethynyl)-2-(3-(methoxymethyl)-4-(pyrimidin-2-yl)piperazin-1-yl)pyrimidine] | 1.15 | – | –
FCCOCCOC[C@H]1CN(c2ncc(C#Cc3cnc(-c4cncnc4)nc3)cn2)CCN1c1ncncn1 [Example 79, (R)-5-((2-(3-((2-(2-fluoroethoxy)ethoxy)methyl)-4-(1,3,5-triazin-2-yl)piperazin-1-yl)pyrimidin-5-yl)ethynyl)-2,5′-bipyrimidine] | 5.42 | – | –
COC[C@H]1CN(c2ncc(C#Cc3ccc(-c4cc(F)ncn4)nc3)cn2)CCN1c1ncc(C#N)cn1 [Example 81, (R)-2-(4-(5-((6-(6-fluoropyrimidin-4-yl)pyridin-3-yl)ethynyl)pyrimidin-2-yl)-2-(methoxymethyl)piperazin-1-yl)pyrimidine-5-carbonitrile] | 1.18 | – | –
Cn1cc(-c2ncc(C#Cc3cnc(N4CCN(c5ncccn5)[C@@H](COCCOCCOCCOCCF)C4)nc3)cn2)cn1 [Example 83, (R)-2-(3-(13-fluoro-2,5,8,11-tetraoxatridecyl)-4-(pyrimidin-2-yl)piperazin-1-yl)-5-((2-(1-methyl-1H-pyrazol-4-yl)pyrimidin-5-yl)ethynyl)pyrimidine] | 2.39 | – | –
COC[C@H]1CN(c2ncncn2)CCN1c1ncc(C#Cc2cnc(-c3cnn(CCF)c3)nc2)cn1 [Example 84, (R)-2-(4-(5-((2-(1-(2-fluoroethyl)-1H-pyrazol-4-yl)pyrimidin-5-yl)ethynyl)pyrimidin-2-yl)-3-(methoxymethyl)piperazin-1-yl)-1,3,5-triazine] | 2.29 | – | –
COC[C@H]1CN(c2ncc(C#Cc3cnc(-c4cnn(CCF)c4)nc3)cn2)CCN1c1ccc(F)cn1 [Example 85, (R)-2-(1-(2-fluoroethyl)-1H-pyrazol-4-yl)-5-((2-(4-(5-fluoropyridin-2-yl)-3-(methoxymethyl)piperazin-1-yl)pyrimidin-5-yl)ethynyl)pyrimidine] | 1.05 | – | –
C[C@H]1CN(c2ccc(F)cn2)CCN1c1ncc(C#Cc2cnc(-n3cnnc3)nc2)cn1 [Example 86, (S)-5-((2-(4H-1,2,4-triazol-4-yl)pyrimidin-5-yl)ethynyl)-2-(4-(5-fluoropyridin-2-yl)-2-methylpiperazin-1-yl)pyrimidine] | 2.59 | – | –
COC[C@@H]1CN(c2ncncn2)CCN1c1ncc(C#Cc2cnc(-c3cnn(CCF)c3)nc2)cn1 [Example 87, (S)-2-(4-(5-((2-(1-(2-fluoroethyl)-1H-pyrazol-4-yl)pyrimidin-5-yl)ethynyl)pyrimidin-2-yl)-3-(methoxymethyl)piperazin-1-yl)-1,3,5-triazine] | 0.89 | – | –

From patent US20260224758A1, “ALPHA-SYNUCLEIN BINDERS AND METHODS OF USE” (Merck Sharp & Dohme LLC, priority 2023, published 2026)
